From PubChem BioAssay (NCI)
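Results reflect a 48-hour exposure of cells in 96-well plates to compound at five concentrations. GI50 is the concentration that inhibits growth by half. TGI denotes the concentration required for complete inhibition of growth.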

Key:
Experiment in all cases: growth of human tumour cells (NCI), 48 h
[1] = system: 786-0 renal
[2] = system: A498 renal
[3] = system: A549 NSCLC
[4] = system: ACHN renal
[5] = system: BT-549 breast
[6] = system: CAKI-1 renal
[7] = system: CCRF-CEM leukemia
[8] = system: COLO 205 colon
[9] = system: DU-145 prostate
[10] = system: HCC-2998 colon
[11] = system: HCT-116 colon
[12] = system: HCT-15 colon
[13] = system: HL-60(TB) leukemia
[14] = system: HOP-62 NSCLC
[15] = system: HOP-92 NSCLC
[16] = system: HS 578T breast
[17] = system: HT29 colon
[18] = system: IGROV1 ovarian
[19] = system: K-562 leukemia
[20] = system: KM12 colon
[21] = system: LOX IMVI melanoma
[22] = system: M14 melanoma
[23] = system: MALME-3M melanoma
[24] = system: MCF7 breast
[25] = system: MDA-MB-231 breast
[26] = system: MDA-MB-435
[27] = system: MOLT-4 leukemia
[28] = system: NCI-H226 lung
[29] = system: NCI-H23 lung

Compound: CCCCCCCC/C=C/CCCCCCCC(=O)OC[C@H]1O[C@@H](n2ccc(N)nc2=O)C(F)(F)[C@@H]1O
- GI50 [1]: < 0.0139 µM
- TGI [1]: 2.56 µM
- GI50 [2]: < 0.0218 µM
- TGI [2]: 6.32 µM
- GI50 [3]: < 0.0174 µM
- TGI [3]: > 70.1 µM
- GI50 [4]: < 0.01 µM
- TGI [4]: 6.07 µM
- TGI [5]: > 60.6 µM
- GI50 [6]: < 0.0135 µM
- TGI [6]: 3.59 µM
- GI50 [7]: < 0.0158 µM
- TGI [7]: 2.09 µM
- GI50 [8]: 0.131 µM
- TGI [8]: > 37.9 µM
- GI50 [9]: < 0.019 µM
- TGI [9]: > 46.2 µM
- GI50 [10]: 17.5 µM
- TGI [10]: > 100 µM
- GI50 [11]: < 0.018 µM
- TGI [11]: > 100 µM
- GI50 [12]: 0.117 µM
- TGI [12]: > 100 µM
- GI50 [13]: 0.0217 µM
- TGI [13]: 28 µM
- GI50 [14]: < 0.0209 µM
- GI50 [15]: 0.141 µM
- TGI [15]: 34.7 µM
- GI50 [16]: > 59.9 µM
- TGI [16]: > 100 µM
- GI50 [17]: 0.097 µM
- TGI [17]: > 100 µM
- GI50 [18]: 19 µM
- TGI [18]: > 100 µM
- GI50 [19]: 0.307 µM
- TGI [19]: > 100 µM
- GI50 [20]: > 100 µM
- TGI [20]: > 100 µM
- GI50 [21]: 0.0418 µM
- TGI [21]: > 35.9 µM
- GI50 [22]: < 0.0115 µM
- TGI [22]: 0.0273 µM
- GI50 [23]: 0.0463 µM
- TGI [23]: > 100 µM
- GI50 [24]: < 0.01 µM
- TGI [24]: > 100 µM
- GI50 [25]: 7.98 µM
- TGI [25]: > 100 µM
- GI50 [26]: < 0.0266 µM
- TGI [26]: > 100 µM
- GI50 [27]: 0.0352 µM
- TGI [27]: 5.02 µM
- GI50 [28]: 0.333 µM
- TGI [28]: > 61.3 µM
- GI50 [29]: < 0.0143 µM
